Source: US7425557B2, “Inhibitors of glycogen synthase kinase 3” (Novartis Vaccines and Diagnostics, Inc., priority 1998, dated 2008)

target: human GSK3β (Homo sapiens, UniProt P49841); assay: Screening for GSK3 inhibitory activity using a cell-free assay; type: biochemical; conditions: read-out: IC50 with respect to GSK3
Summary of the method: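 Compounds in DMSO were tested against human GSK3β over a three-hour kinase reaction. Radiolabeled phosphate transferred to the peptide was captured on streptavidin plates after EDTA/ATP stop and quantified by scintillation counting. Signal was plotted versus compound concentration.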

human GSK3β, sequence (P49841 whole entry): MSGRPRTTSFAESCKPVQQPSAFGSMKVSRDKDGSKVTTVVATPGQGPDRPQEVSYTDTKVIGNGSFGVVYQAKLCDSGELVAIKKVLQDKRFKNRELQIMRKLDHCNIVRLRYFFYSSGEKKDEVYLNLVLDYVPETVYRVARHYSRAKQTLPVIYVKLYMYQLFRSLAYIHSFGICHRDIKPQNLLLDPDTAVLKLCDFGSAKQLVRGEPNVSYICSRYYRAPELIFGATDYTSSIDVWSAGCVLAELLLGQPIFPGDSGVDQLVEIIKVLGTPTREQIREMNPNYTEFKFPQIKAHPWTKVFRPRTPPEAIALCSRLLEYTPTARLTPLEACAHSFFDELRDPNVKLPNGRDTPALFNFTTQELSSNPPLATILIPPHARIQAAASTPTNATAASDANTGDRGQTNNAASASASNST

IC50 [µM]	Compound
≤ 10	COc1cccc(NCCNc2nccc(-c3ccc(C(=O)NCc4cccc(Br)c4)cc3)n2)n1 [N-[(3-bromophenyl)methyl]{4-[2-({2-[(6-methoxy(2-pyridyl))amino]ethyl}amino)pyrimidin-4-yl]phenyl}carboxamide]
≤ 10	O=C(NCc1cccc(Br)c1)c1ccc(-c2ccnc(NCCCNc3ccc([N+](=O)[O-])cn3)n2)cc1 [N-[(3-bromophenyl)methyl]{4-[2-({3-[(5-nitro(2-pyridyl))-amino]propyl}amino)pyrimidin-4-yl]phenyl}carboxamide]
≤ 10	O=C(NCc1cccc(Cl)c1)c1ccc(-c2ccnc(NCCNc3ccc([N+](=O)[O-])cn3)n2)cc1 [N-[(3-chlorophenyl)methyl]{4-[2-({2-[(5-nitro(2-pyridyl))amino]ethyl}amino)pyrimidin-4-yl]-phenyl}carboxamide]
≤ 10	O=C(NCc1cccc(F)c1)c1ccc(-c2ccnc(NCCNc3ccc([N+](=O)[O-])cn3)n2)cc1 [N-[(3-fluorophenyl)methyl]{4-[2-({2-[(5-nitro(2-pyridyl))amino]ethyl}amino)pyrimidin-4-yl]-phenyl}carboxamide]
≤ 10	O=C(NCc1cccc(I)c1)c1ccc(-c2ccnc(NCCNc3ccc([N+](=O)[O-])cn3)n2)cc1 [N-[(3-iodophenyl)methyl]{4-[2-({2-[(5-nitro(2-pyridyl))amino]ethyl}amino)pyrimidin-4-yl]phenyl}carboxamide]
≤ 1	COc1cccc(CNC(=O)c2ccc(-c3ccnc(NCCNc4ccc([N+](=O)[O-])cn4)n3)cc2)c1 [N-[(3-methoxyphenyl)methyl]{4-[2-({2-[(5-nitro(2-pyridyl))amino]ethyl}amino)pyrimidin-4-yl]phenyl}carboxamide]
≤ 10	Cc1cccc(CNC(=O)c2ccc(-c3ccnc(NCCNc4ccc([N+](=O)[O-])cn4)n3)cc2)c1 [N-[(3-methylphenyl)methyl){4-[2-({2-[(5-nitro(2-pyridyl))amino]ethyl}amino)pyrimidin-4-yl]phenyl}carboxamide]
≤ 10	O=C(NCc1ccc(Br)cc1)c1ccc(-c2ccnc(NCCNc3ccc([N+](=O)[O-])cn3)n2)cc1 [N-[(4-bromophenyl)methyl]{4-[2-({2-[(5-nitro(2-pyridyl))-amino]ethyl}amino)pyrimidin-4-yl]phenyl}carboxamide]
≤ 10	O=C(NCc1ccc(F)cc1)c1ccc(-c2ccnc(NCCNc3ccc([N+](=O)[O-])cn3)n2)cc1 [N-[(4-fluorophenyl)methyl]{4-[2-({2-[(5-nitro(2-pyridyl))amino]ethyl}amino)pyrimidin-4-yl]phenyl}carboxamide]
≤ 10	COc1ccc(CNC(=O)c2ccc(-c3ccnc(NCCNc4ccc([N+](=O)[O-])cn4)n3)cc2)cc1 [N-[(4-methoxyphenyl)methyl]{4-[2-({2-[(5-nitro(2-pyridyl))amino]ethyl}-amino)pyrimidin-4-yl]phenyl}carboxamide]
≤ 10	Cc1cnc(CNC(=O)c2ccc(-c3ccnc(NCCNc4ccc([N+](=O)[O-])cn4)n3)cc2)cn1 [N-[(5-methylpyrazin-2-yl)methyl]{4-[2-({2-[(5-nitro(2-pyridyl))amino]ethyl}amino)pyrimidin-4-yl]phenyl}carboxamide]
≤ 10	O=C(NCc1ccccc1)c1ccc(-c2ccnc(NCCc3ccccn3)n2)cc1 [N-benzyl(4-{2-[(2-(2-pyridyl)ethyl)amino]pyrimidin-4-yl}phenyl)carboxamide]
≤ 1	CCCCNC(=O)c1cnc(NCCNc2ccc([N+](=O)[O-])cn2)nc1-c1ccc(C#N)cc1 [N-butyl[4-(4-cyanophenyl)-2-({2-[(5-nitro(2-pyridyl))amino]ethyl}amino)pyrimidin-5-yl]carboxamide]
≤ 10	CC(=O)Nc1ccc(-c2ccnc(NCCNc3ccc([N+](=O)[O-])cn3)n2)cc1 [N-{4-[2-({2-[(5-nitro-2-pyridyl)amino]ethyl}amino)-pyrimidin-4-yl]phenyl}acetamide]
≤ 10	COc1ccc(OC)c(CCNc2nccc(-c3cccnc3)n2)c1 [[2-(2,5-dimethoxyphenyl)ethyl](4-(3-pyridyl)pyrimidin-2-yl)amine]
≤ 10	c1ccc(NCCNc2nccc(-c3cccnc3)n2)nc1 [[2-(2-pyridylamino)ethyl](4-(3-pyridyl)pyrimidin-2-yl)amine]
≤ 10	FC(F)(F)Oc1ccc(-c2ccnc(NCCNc3ccccn3)n2)cc1 [[2-(2-pyridylamino)ethyl]{4-[4-(trifluoromethoxy)-phenyl]pyrimidin-2-yl}amine]
≤ 1	CN(C)CCOC(=O)Nc1cnc(NCCNc2ccc([N+](=O)[O-])cn2)nc1-c1ccc(C#N)cc1 [[2-(dimethyl-amino)ethoxy]-N-[4-(4-cyanophenyl)-2-({2-[(5-nitro(2-pyridyl))amino]ethyl}amino)-pyrimidin-5-yl]carboxamide]
≤ 10	O=[N+]([O-])c1ccc(NCCNc2nccc(NCc3ccccc3)n2)nc1 [[2-({2-[(5-nitro(2-pyridyl))amino]ethyl}amino)pyrimidin-4-yl]benzylamine]

IC50 [µM]	Compound
≤ 1	Nc1nc(NCCNc2ncc(CO)c(-c3ccc(Cl)cc3Cl)n2)ccc1[N+](=O)[O-] [[2-({2-[(6-amino-5-nitro(2-pyridyl))amino]ethyl}amino)-4-(2,4-dichlorophenyl)pyrimidin-5-yl]methan-1-ol]
≤ 1	O=[N+]([O-])c1ccc(NCCNc2ncc(CO)c(-c3ccc(Cl)cc3Cl)n2)nc1 [[4-(2,4-dichlorophenyl)-2-({2-[(5-nitro(2-pyridyl))amino]ethyl}amino)-pyrimidin-5-yl]methan-1-ol]
≤ 1	Cn1ccnc1-c1cnc(NCCNc2ccc([N+](=O)[O-])cn2)nc1-c1ccc(Cl)cc1Cl [[4-(2,4-dichlorophenyl)-5-(1-methylimidazol-2-yl)pyrimidin-2-yl]{2-[(5-nitro(2-pyridyl))amino]-ethyl}amine]
≤ 1	Cc1cn(-c2cnc(NCCNc3ccc([N+](=O)[O-])cn3)nc2-c2ccc(Cl)cc2Cl)c(C)n1 [[4-(2,4-dichlorophenyl)-5-(2,4-dimethylimidazolyl)pyrimidin-2-yl]{2-[(5-nitro(2-pyridyl))amino]ethyl}amine]
≤ 1	Cc1nccn1-c1cnc(NCCNc2ccc([N+](=O)[O-])cn2)nc1-c1ccc(Cl)cc1Cl [[4-(2,4-dichlorophenyl)-5-(2-methylimidazolyl)pyrimidin-2-yl]{2-[(5-nitro(2-pyridyl))amino]ethyl}amine]
≤ 1	Cc1c[nH]c(-c2cnc(NCCNc3ccc([N+](=O)[O-])cn3)nc2-c2ccc(Cl)cc2Cl)n1 [[4-(2,4-dichlorophenyl)-5-(4-methylimidazol-2-yl)pyrimidin-2-yl]{2-[(5-nitro(2-pyridyl))amino]ethyl}amine]
≤ 1	Cc1cn(-c2cnc(NCCNc3ccc([N+](=O)[O-])cn3)nc2-c2ccc(Cl)cc2Cl)cn1 [[4-(2,4-dichlorophenyl)-5-(4-methylimidazolyl)pyrimidin-2-yl]{2-[(5-nitro(2-pyridyl))amino]ethyl}amine]
≤ 1	CN1CCN(c2cnc(NCCNc3ccc([N+](=O)[O-])cn3)nc2-c2ccc(Cl)cc2Cl)CC1 [[4-(2,4-dichlorophenyl)-5-(4-methylpiperazinyl)pyrimidin-2-yl]{2-[(5-nitro(2-pyridyl))amino]ethyl}amine]
≤ 1	O=[N+]([O-])c1ccc(NCCNc2ncc(CN3CCOCC3)c(-c3ccc(Cl)cc3Cl)n2)nc1 [[4-(2,4-dichlorophenyl)-5-(morpholin-4-ylmethyl)pyrimidin-2-yl]{2-[(5-nitro(2-pyridyl))amino]ethyl}amine]
≤ 1	CCc1cnc(NCCNc2ccc([N+](=O)[O-])cn2)nc1-c1ccc(Cl)cc1Cl [[4-(2,4-dichlorophenyl)-5-ethylpyrimidin-2-yl]{2-[(5-nitro(2-pyridyl))amino]ethyl}amine]
≤ 1	FC(F)(F)c1ccc(NCCNc2ncc(-c3ncc[nH]3)c(-c3ccc(Cl)cc3Cl)n2)nc1 [[4-(2,4-dichlorophenyl)-5-imidazol-2-ylpyrimidin-2-yl](2-{[5-(trifluoromethyl)(2-pyridyl)]amino}ethyl) amine]
≤ 1	O=[N+]([O-])c1ccc(NCCNc2ncc(-c3ncc[nH]3)c(-c3ccc(Cl)cc3Cl)n2)nc1 [[4-(2,4-dichlorophenyl)-5-imidazol-2-ylpyrimidin-2-yl]{2-[(5-nitro(2-pyridyl))amino]ethyl}amine]
≤ 1	COc1nc(NCCNc2ncc(-c3ncc[nH]3)c(-c3ccc(Cl)cc3Cl)n2)ccc1[N+](=O)[O-] [[4-(2,4-dichlorophenyl)-5-imidazol-2-ylpyrimidin-2-yl]{2-[(6-methoxy-5-nitro(2-pyridyl))amino]ethyl}amine]
≤ 1	O=[N+]([O-])c1ccc(NCCN(CCN2CCOCC2)c2ncc(-n3ccnc3)c(-c3ccc(Cl)cc3Cl)n2)nc1 [[4-(2,4-dichlorophenyl)-5-imidazolylpyrimidin-2-yl](2-morpholin-4-ylethyl){2-[(5-nitro(2-pyridyl))amino]ethyl}amine]
≤ 1	CN(C)CCN(CCNc1ccc([N+](=O)[O-])cn1)c1ncc(-n2ccnc2)c(-c2ccc(Cl)cc2Cl)n1 [[4-(2,4-dichlorophenyl)-5-imidazolylpyrimidin-2-yl][2-(dimethylamino)ethyl]{2-[(5-nitro(2-pyridyl))amino]ethyl}amine]
≤ 1	O=[N+]([O-])c1ccc(NCCN(CCN2CCCC2)c2ncc(-n3ccnc3)c(-c3ccc(Cl)cc3Cl)n2)nc1 [[4-(2,4-dichlorophenyl)-5-imidazolylpyrimidin-2-yl]{2-[(5-nitro(2-pyridyl))amino]ethyl}(2-pyrrolidinylethyl)amine]
≤ 10	Clc1ccc(-c2ccnc(NCCNc3ccccn3)n2)c(Cl)c1 [[4-(2,4-dichlorophenyl)pyrimidin-2-yl][2-(2-pyridylamino)ethyl]amine]
≤ 10	Cc1nc(C)c(-c2ccnc(NCCNc3ccc([N+](=O)[O-])cn3)n2)s1 [[4-(2,4-dimethyl(1,3-thiazol-5-yl))pyrimidin-2-yl]{2-[(5-nitro(2-pyridyl))-amino]ethyl}amine]
